Measured values published in PubChem BioAssay (NCI).
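Compound exposure: 48 hours, 5 concentrations, 96-well plates. The concentration for full growth arrest is given as TGI.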

Assays:
Test in all cases: NCI anticancer screen, dose series, 48 h
786-0 renal = tested on: 786-0 renal
A498 renal = tested on: A498 renal
A549 NSCLC = tested on: A549 NSCLC
ACHN renal = tested on: ACHN renal
BT-549 breast = tested on: BT-549 breast
CAKI-1 renal = tested on: CAKI-1 renal
CCRF-CEM leukemia = tested on: CCRF-CEM leukemia
COLO 205 colon = tested on: COLO 205 colon
DU-145 prostate = tested on: DU-145 prostate
EKVX NSCLC = tested on: EKVX NSCLC
HCT-116 colon = tested on: HCT-116 colon
HCT-15 colon = tested on: HCT-15 colon
HL-60(TB) leukemia = tested on: HL-60(TB) leukemia
HOP-62 NSCLC = tested on: HOP-62 NSCLC
HS 578T breast = tested on: HS 578T breast
HT29 colon = tested on: HT29 colon
IGROV1 ovarian = tested on: IGROV1 ovarian
K-562 leukemia = tested on: K-562 leukemia
KM12 colon = tested on: KM12 colon
LOX IMVI melanoma = tested on: LOX IMVI melanoma
M14 melanoma = tested on: M14 melanoma
MALME-3M melanoma = tested on: MALME-3M melanoma
MCF7 breast = tested on: MCF7 breast
MDA-MB-231 breast = tested on: MDA-MB-231 breast
MDA-MB-435 = tested on: MDA-MB-435
MOLT-4 leukemia = tested on: MOLT-4 leukemia
NCI-H226 lung = tested on: NCI-H226 lung
NCI-H23 lung = tested on: NCI-H23 lung
NCI-H522 lung = tested on: NCI-H522 lung
NCI/ADR-RES ovarian = tested on: NCI/ADR-RES ovarian
OVCAR-3 ovarian = tested on: OVCAR-3 ovarian
OVCAR-4 ovarian = tested on: OVCAR-4 ovarian
OVCAR-5 ovarian = tested on: OVCAR-5 ovarian
OVCAR-8 ovarian = tested on: OVCAR-8 ovarian
PC-3 prostate = tested on: PC-3 prostate
RPMI-8226 leukemia = tested on: RPMI-8226 leukemia
SF-268 CNS = tested on: SF-268 CNS
SF-295 CNS = tested on: SF-295 CNS
SF-539 CNS = tested on: SF-539 CNS
SK-MEL-2 melanoma = tested on: SK-MEL-2 melanoma
SK-MEL-28 melanoma = tested on: SK-MEL-28 melanoma
SK-MEL-5 melanoma = tested on: SK-MEL-5 melanoma
SK-OV-3 ovarian = tested on: SK-OV-3 ovarian
SN12C renal = tested on: SN12C renal
SNB-19 CNS = tested on: SNB-19 CNS
SR leukemia = tested on: SR leukemia
SW-620 colon = tested on: SW-620 colon
T-47D breast = tested on: T-47D breast
TK-10 renal = tested on: TK-10 renal
U251 CNS = tested on: U251 CNS
UACC-257 melanoma = tested on: UACC-257 melanoma
UACC-62 melanoma = tested on: UACC-62 melanoma
UO-31 renal = tested on: UO-31 renal

Measured: TGI

CN(C(=O)OC(C)(C)C)[C@H]1CCCC[C@H]1N1CCCC1
> 100 µM: 786-0 renal | A498 renal | A549 NSCLC | ACHN renal | BT-549 breast | CAKI-1 renal | CCRF-CEM leukemia | COLO 205 colon | DU-145 prostate | EKVX NSCLC | HCT-116 colon | HCT-15 colon | HL-60(TB) leukemia | HOP-62 NSCLC | HS 578T breast | HT29 colon | IGROV1 ovarian | K-562 leukemia | KM12 colon | LOX IMVI melanoma | M14 melanoma | MALME-3M melanoma | MCF7 breast | MDA-MB-231 breast | MDA-MB-435 | MOLT-4 leukemia | NCI-H226 lung | NCI-H23 lung | NCI-H522 lung | NCI/ADR-RES ovarian | OVCAR-3 ovarian | OVCAR-4 ovarian | OVCAR-5 ovarian | OVCAR-8 ovarian | PC-3 prostate | RPMI-8226 leukemia | SF-268 CNS | SF-295 CNS | SF-539 CNS | SK-MEL-2 melanoma | SK-MEL-28 melanoma | SK-MEL-5 melanoma | SK-OV-3 ovarian | SN12C renal | SNB-19 CNS | SR leukemia | SW-620 colon | T-47D breast | TK-10 renal | U251 CNS | UACC-257 melanoma | UACC-62 melanoma | UO-31 renal
